From ChEMBL document CHEMBL6092137, “Synergistic immune augmentation enabled by covalently conjugating TLR4 and NOD2 agonists” (Eur J Med Chem, 2024) come the findings set out here.

Calls of active or inactive are those of the source. The rule behind the calls is not given here.

One data set has as its system THP-1. In words: Cytotoxicity against human THP-1 cells assessed as reduction in cell viability by MTT assay. Type of data set: toxicity, cell-based. Background: Tetrazolium dyes change colour on reduction, which living cells bring about.
Data set [1] relates to BMDC. In words: Immunostimulatory activity in C57BL/6 mouse BMDC cells assessed as increase in IL-6 level at 9.3 uM incubated for 20 hrs in presence of TAK242 inhibitor by ELISA. The data set is classed as functional, cell-based. (ELISA stands for enzyme-linked immunosorbent assay.)
Data set [2] has as its system T-cell. In words: Immunostimulatory activity in mouse spleen T-lymphocytes assessed as fold increase in proportion of TNF-alpha and IFN-gamma double-positive secreting CD4+ cells and measured on day 42 in the presence of muramyl dipeptide by staining based flow cytometric analysis relative to muramyl dipeptide. Type of data set: functional. Conditions: time 42 day.

Data set [3] can be described thus: Induction of mouse BMDC cell maturation assessed as change in CD86 positive cells incubated for 18 hrs in the presence of muramyl dipeptide by staining based flow cytometric analysis relative to control. Type of data set: functional.
The test system of data set [4] is Mus musculus. In words: Induction of innate immunity in BALB/c mouse assessed as fold increase in IL-6 level in serum at 16.12 ug, ip in liposome formulation measured after 2 hrs by ELISA relative to RC529-NH2. Type of data set: functional. Conditions: dose 16.12 µg.
Data set [5] in a line: Induction of mouse RAW264.7 cell maturation assessed as change in CD86 positive cells incubated for 18 hrs by staining based flow cytometric analysis relative to control. Type of data set: functional. Background: A flow cytometer gives signals particle by particle.
Data set [6] can be described thus: Induction of mouse RAW264.7 cell maturation assessed as fold increase in CD80 positive cells incubated for 18 hrs in the presence of muramyl dipeptide by staining based flow cytometric analysis relative to muramyl dipeptide. Type of data set: functional.
Data set [7] has as its system Mus musculus. In words: Induction of innate immunity in BALB/c mouse assessed as fold increase in IL-6 level in serum at 16.12 ug, ip measured after 2 hrs in presence of muramyl dipeptide by ELISA relative to RC529. The data set is classed as functional. Conditions: dose 16.12 µg.
A short description of data set [8]: Induction of mouse BMDC cell maturation assessed as change in CD80 positive cells incubated for 18 hrs in the presence of muramyl dipeptide by staining based flow cytometric analysis relative to control. The data set is classed as functional.
The species named for data set [9] is Mus musculus. Nature of the data set: Activation of adaptive immune response in ovalbumin immunized mouse model assessed as fold increase in IgG titers incubated for 1 hrs in presence of muramyl dipeptide and measured on day 42 relative to RC529. The data set is classed as functional.
Data set [10] is described as follows: Induction of mouse RAW264.7 cell maturation assessed as change in CD86 positive cells incubated for 18 hrs in the presence of muramyl dipeptide by staining based flow cytometric analysis relative to control. Type of data set: functional.
A short description of data set [11]: Induction of mouse RAW264.7 cell maturation assessed as change in CD80 positive cells incubated for 18 hrs by staining based flow cytometric analysis relative to control. Type of data set: functional.
Data set [12] has as its system T-cell. Nature of the data set: Immunostimulatory activity in mouse spleen T-lymphocytes assessed as fold increase in proportion of TNF-alpha and IFN-gamma double-positive secreting CD4+ cells and measured on day 42 in the presence of muramyl dipeptide by staining based flow cytometric analysis relative to RC529. Type of data set: functional. Conditions: time 42 day.

Data set [13] in a line: Induction of mouse BMDC cell maturation assessed as change in CD86 positive cells incubated for 18 hrs by staining based flow cytometric analysis relative to control. The data set is classed as functional.
Data set [14] is described as follows: Induction of mouse RAW264.7 cell maturation assessed as fold increase in CD80 positive cells incubated for 18 hrs in the presence of muramyl dipeptide by staining based flow cytometric analysis relative to RC529. The data set is classed as functional.
Data set [15] is filed under the species Mus musculus. Nature of the data set: Activation of adaptive immune response in ovalbumin immunized mouse model assessed as fold increase in IgG titers incubated for 1 hrs in presence of muramyl dipeptide and measured on day 42 relative to muramyl dipeptide. The data set is classed as functional.
The nature of data set [16]: Induction of mouse RAW264.7 cell maturation assessed as change in CD80 positive cells incubated for 18 hrs in the presence of muramyl dipeptide by staining based flow cytometric analysis relative to control. The data set is classed as functional.
Data set [17] in a line: Induction of mouse BMDC cell maturation assessed as change in CD80 positive cells incubated for 18 hrs by staining based flow cytometric analysis relative to control. Type of data set: functional.
The test system of data set [18] is Mus musculus. Nature of the data set: Induction of innate immunity in BALB/c mouse assessed as fold increase in IL-6 level in serum at 5.36 ug, ip measured after 2 hrs in presence of muramyl dipeptide by ELISA relative to muramyl dipeptide. The following applies: dose 5.36 µg. The data set is classed as functional.
Data set [19] can be described thus: Induction of mouse RAW264.7 cell maturation assessed as fold increase in CD80 positive cells incubated for 18 hrs in the presence of muramyl dipeptide by staining based flow cytometric analysis relative to RC529-NH2. The data set is classed as functional.
Data set [20] deals with BMDC. In words: Immunostimulatory activity in C57BL/6 mouse BMDC cells assessed as increase in IL-6 level at 9.3 uM incubated for 20 hrs in presence of GSK717 inhibitor by ELISA. Type of data set: functional, cell-based.

Regarding `CN(CCc1nc2ccccc2n1CC(=O)Nc1ccc2c(c1)CCC2)C(=O)c1ccccc1`, in the data set with THP-1, the Activity result was “Non-toxic”.
In the case of `CCCCCCCCCCCCCC(=O)O[C@H](CCCCCCCCCCC)CC(=O)NCCO[C@@H]1O[C@H](CO)[C@@H](OP(=O)(O)O)[C@H](OC(=O)C[C@@H](CCCCCCCCCCC)OC(=O)CCCCCCCCCCCCC)[C@H]1NC(=O)C[C@@H](CCCCCCCCCCC)OC(=O)CCCCCCCCCCCCC.CCN(CC)CC`, in the data set with BMDC [1], the outcome was inactive. Moreover, the “fold change (FC)” value came out at 1.2 in the data set with T-cell [2]; 21 in the data set on Mus musculus [4]; 2.4 in data set [6]; 1.04 with Mus musculus [7]; 1.1 in the data set filed under Mus musculus [9]; 1.2 with T-cell [12]. For the same compound, the “fold change (FC)” value in data set [14] was 1.1; in the data set listed under Mus musculus [15], 1.9; with Mus musculus [18], 17. The Activity was 14.6% in [3]; 13.1% in data set [5]; 24.1% in data set [8]; 13.4% in data set [10]; 26.9% in data set [11]; 14% in [13]. The Activity is given as 28.7% in data set [16] and 21.6% in data set [17].
On to `CCCCCCCCCCCCCC(=O)O[C@H](CCCCCCCCCCC)CC(=O)NCCO[C@@H]1O[C@H](CN)[C@@H](OP(=O)(O)O)[C@H](OC(=O)C[C@@H](CCCCCCCCCCC)OC(=O)CCCCCCCCCCCCC)[C@H]1NC(=O)C[C@@H](CCCCCCCCCCC)OC(=O)CCCCCCCCCCCCC`, for which, in the data set with BMDC [1], the outcome was inactive. In addition, the Activity is reported as 14.4% in data set [3]; 10.7% in data set [5]; 22.8% in data set [8]; 10.9% in data set [10]; 14.7% in data set [11]; 12.9% in [13]. The Activity was 16.2% in data set [16] and 15.3% in data set [17]. Besides, the results for the “fold change (FC)” value in data set [6] and in [19] were 1.3 and 1.1, respectively.
In the case of `CC(=O)N[C@@H]1[C@@H](O[C@H](C)C(=O)N[C@@H](C)C(=O)N[C@H](CCC(=O)O)C(N)=O)[C@H](O)[C@@H](CO)O[C@H]1O` [MURAMYLDIPEPTIDE], the result in the data set on BMDC [20] was inactive. Moreover, the Activity is 10.8% in data set [5], 12.2% in data set [11], 11.4% in [13] and 13.6% in [17].
Turning to `CCOC(=O)C1=CCCC[C@H]1S(=O)(=O)Nc1ccc(F)cc1Cl` [RESATORVID], the Activity result in the data set with THP-1 is on record as “Non-toxic”.
